Among the data in patent US10351546B2, “Pyridin-3-yl acetic acid derivatives as inhibitors of human immunodeficiency virus replication” (priority 2015, dated 2019) are EC50 values, retold here.

pEC50: −log10 of the molar value.

For the first test, the system named is NL-RLuc virus. Put plainly: Inhibition of HIV replication (NL-RLuc luciferase reporter virus in MT-2 cells). The format is cell-based. The settings on record: Human immunodeficiency virus 1, MT2, 120 h, read-out: Activity. An outline of the steps:
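MT-2 cells were infected with NL4-3-derived virus carrying Renilla luciferase in place of part of nef, in RPMI/10% FBS, with serial compound dilutions. Luciferase read after 5 days of multicycle replication. EC50 from the median effect equation, at least 2 experiments.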
On the technique in general: Reporter assays use an easily measured gene product as a stand-in for the process of interest.
In the case of `CCOCCOCc1cc(N2CCC(C)(C)CC2)c([C@H](OC(C)(C)C)C(=O)O)c(C)n1` [Example 35, (S)-2-(tert-butoxy)-2-(4-(4,4-dimethylpiperidin-1-yl)-6-((2-ethoxyethoxy)methyl)-2-methylpyridin-3-yl)acetic acid], the pEC50 is 6.00 to 7.00.

`Cc1cc(F)ccc1CN1CCc2cc(-c3c(CN(C)CC4CCOCC4)nc(C)c([C@H](OC(C)(C)C)C(=O)O)c3N3CCC(C)(C)CC3)ccc2C1` [Example 137, (S)-2-(tert-Butoxy)-2-(4-(4,4-dimethylpiperidin-1-yl)-5-(2-(4-fluoro-2-methylbenzyl)-1,2,3,4-tetrahydroisoquinolin-6-yl)-2-methyl-6-((methyl((tetrahydro-2H-pyran-4-yl)methyl)amino)methyl)pyridin-3-yl)acetic acid]: the pEC50 is above 7.00.

As to `Cc1nc(CN(C)C)c(-c2ccc(OCCc3ccc(F)cc3)cc2)c(N2CCC(C)(C)CC2)c1[C@H](OC(C)(C)C)C(=O)O` [Example 65, (S)-2-(tert-Butoxy)-2-(6-((dimethylamino)methyl)-4-(4,4-dimethylpiperidin-1-yl)-5-(4-(4-fluorophenethoxy)phenyl)-2-methylpyridin-3-yl)acetic acid], the pEC50 was above 7.00.

`Cc1cc(F)ccc1CN1CCc2cc(-c3c(Cn4cnnc4C)nc(C)c([C@H](OC(C)(C)C)C(=O)O)c3N3CCC(C)(C)CC3)ccc2C1` [Example 146, (S)-2-(tert-butoxy)-2-(4-(4,4-dimethylpiperidin-1-yl)-5-(2-(4-fluoro-2-methylbenzyl)-1,2,3,4-tetrahydroisoquinolin-6-yl)-2-methyl-6-((3-methyl-4H-1,2,4-triazol-4-yl)methyl)pyridin-3-yl)acetic acid]: the pEC50 was above 7.00.

With `CCOCc1nc(C)c([C@H](OC(C)(C)C)C(=O)O)c(N2CCC(C)(C)CC2)c1-c1ccc(OCCc2ccc(F)cc2)cc1` [Example 8, (S)-2-(tert-Butoxy)-2-(4-(4,4-dimethylpiperidin-1-yl)-6-(ethoxymethyl)-5-(4-(4-fluorophenethoxy)phenyl)-2-methylpyridin-3-yl)acetic acid], the pEC50 was above 7.00.

With `Cc1nc(CN2CCS(=O)(=O)CC2)c(-c2ccc(OCCc3ccc(F)cc3)cc2)c(N2CCC(C)(C)CC2)c1[C@H](OC(C)(C)C)C(=O)O` [Example 83, (S)-2-(tert-Butoxy)-2-(4-(4,4-dimethylpiperidin-1-yl)-6-((1,1-dioxidothiomorpholino)methyl)-5-(4-(4-fluorophenethoxy)phenyl)-2-methylpyridin-3-yl)acetic acid], the pEC50 was above 7.00.

`Cc1nc(CS(C)(=O)=O)c(-c2ccc(OCCc3ccc(F)cc3)cc2)c(N2CCC(C)(C)CC2)c1[C@H](OC(C)(C)C)C(=O)O` [Example 18, (S)-2-(tert-Butoxy)-2-(4-(4,4-dimethylpiperidin-1-yl)-5-(4-(4-fluorophenethoxy)phenyl)-2-methyl-6-((methylsulfonyl)methyl)pyridin-3-yl)acetic acid]: the pEC50 is above 7.00.

Regarding `Cc1nc(-c2ncc(Cc3ccc(F)cc3)o2)c(-c2ccc(OCCc3ccc(F)cc3)cc2)c(N2CCC(C)(C)CC2)c1[C@H](OC(C)(C)C)C(=O)O` [Example 45, (S)-2-(tert-Butoxy)-2-(4-(4,4-dimethylpiperidin-1-yl)-6-(5-(4-fluorobenzyl)oxazol-2-yl)-5-(4-(4-fluorophenethoxy)phenyl)-2-methylpyridin-3-yl)acetic acid], the pEC50 was above 7.00.

For `Cc1nc(CN(C)CC2CCOCC2)c(-c2ccc(OCCc3ccc(F)cc3)cc2)c(N2CCC(C)(C)CC2)c1[C@H](OC(C)(C)C)C(=O)O` [Example 84, (S)-2-(tert-Butoxy)-2-(4-(4,4-dimethylpiperidin-1-yl)-5-(4-(4-fluorophenethoxy)phenyl)-2-methyl-6-((methyl((tetrahydro-2H-pyran-4-yl)methyl)amino)methyl)pyridin-3-yl)acetic acid], the pEC50 is above 7.00.

For `COCc1nc(C)c([C@H](OC(C)(C)C)C(=O)O)c(N2CCC(C)(C)CC2)c1-c1ccc(OCCc2ccc(F)cc2)cc1` [Example 3, (S)-2-(tert-Butoxy)-2-(4-(4,4-dimethylpiperidin-1-yl)-5-(4-(4-fluorophenethoxy)phenyl)-6-(methoxymethyl)-2-methylpyridin-3-yl)acetic acid], the pEC50 is above 7.00.

In the case of `Cc1nc(CN2[C@@H]3CC[C@H]2CN(C)C3)c(-c2ccc(OCCc3ccc(F)cc3)cc2)c(N2CCC(C)(C)CC2)c1[C@H](OC(C)(C)C)C(=O)O` [Example 96, (S)-2-(tert-butoxy)-2-(4-(4,4-dimethylpiperidin-1-yl)-5-(4-(4-fluorophenethoxy)phenyl)-2-methyl-6-(((1R,5S)-3-methyl-3,8-diazabicyclo[3.2.1]octan-8-yl)methyl)pyridin-3-yl)acetic acid], the pEC50 was above 7.00.

Turning to `Cc1nc(CNC23CC(C2)C3)c(-c2ccc(OCCc3ccc(F)cc3)cc2)c(N2CCC(C)(C)CC2)c1[C@H](OC(C)(C)C)C(=O)O` [Example 174, (S)-2-(6-((Bicyclo[1.1.1]pentan-1-ylamino)methyl)-4-(4,4-dimethylpiperidin-1-yl)-5-(4-(4-fluorophenethoxy)phenyl)-2-methylpyridin-3-yl)-2-(tert-butoxy)acetic acid], the pEC50 was above 7.00.

Take `Cc1nc(CNCc2ccncc2)c(-c2ccc(OCCc3ccc(F)cc3)cc2)c(N2CCC(C)(C)CC2)c1[C@H](OC(C)(C)C)C(=O)O` [Example 74, (S)-2-(tert-Butoxy)-2-(4-(4,4-dimethylpiperidin-1-yl)-5-(4-(4-fluorophenethoxy)phenyl)-2-methyl-6-(((pyridin-4-ylmethyl)amino)methyl)pyridin-3-yl)acetic acid]: the pEC50 is above 7.00.

On to `Cc1cc(F)ccc1CN1CCc2cc(-c3c(CN4CCC(F)CC4)nc(C)c([C@H](OC(C)(C)C)C(=O)O)c3N3CCC(C)(C)CC3)ccc2C1` [Example 130, (S)-2-(tert-Butoxy)-2-(4-(4,4-dimethylpiperidin-1-yl)-5-(2-(4-fluoro-2-methylbenzyl)-1,2,3,4-tetrahydroisoquinolin-6-yl)-6-((4-fluoropiperidin-1-yl)methyl)-2-methylpyridin-3-yl)acetic acid], for which the pEC50 is above 7.00.

Turning to `COc1nc(C)c([C@H](OC(C)(C)C)C(=O)O)c(N2CCC(C)(C)CC2)c1-c1ccc(OCCc2ccc(F)cc2)cc1` (single isomer, unassigned) [Example 51], the pEC50 is above 7.00.

For `COCCNC(=O)c1nc(C)c([C@H](OC(C)(C)C)C(=O)O)c(N2CCC(C)(C)CC2)c1-c1ccc(OCCc2ccc(F)cc2)cc1` [Example 39, (S)-2-(tert-Butoxy)-2-(4-(4,4-dimethylpiperidin-1-yl)-5-(4-(4-fluorophenethoxy)phenyl)-6-((2-methoxyethyl)carbamoyl)-2-methylpyridin-3-yl)acetic acid], the pEC50 was above 7.00.

Consider `Cc1cc(F)ccc1CN1CCc2cc(-c3c(CN4CCCC4)nc(C)c([C@H](OC(C)(C)C)C(=O)O)c3N3CCC(C)(C)CC3)ccc2C1` [Example 118, (S)-2-(tert-Butoxy)-2-(4-(4,4-dimethylpiperidin-1-yl)-5-(2-(4-fluoro-2-methylbenzyl)-1,2,3,4-tetrahydroisoquinolin-6-yl)-2-methyl-6-(pyrrolidin-1-ylmethyl)pyridin-3-yl)acetic acid], for which the pEC50 was above 7.00.

With `Cc1cccc(Cl)c1CN1CCc2cc(-c3c(CO)nc(C)c([C@H](OC(C)(C)C)C(=O)O)c3N3CCC(C)(C)CC3)ccc2C1` [Example 165, (S)-2-(tert-butoxy)-2-(5-(2-(2-chloro-6-methylbenzyl)-1,2,3,4-tetrahydroisoquinolin-6-yl)-4-(4,4-dimethylpiperidin-1-yl)-6-(hydroxymethyl)-2-methylpyridin-3-yl)acetic acid], the pEC50 is above 7.00.

`Cc1cc(F)ccc1CN1CCc2cc(-c3c(COC(C)C)nc(C)c([C@H](OC(C)(C)C)C(=O)O)c3N3CCC(C)(C)CC3)ccc2C1` [Example 158, (S)-2-(tert-Butoxy)-2-(4-(4,4-dimethylpiperidin-1-yl)-5-(2-(4-fluoro-2-methylbenzyl)-1,2,3,4-tetrahydroisoquinolin-6-yl)-6-(isopropoxymethyl)-2-methylpyridin-3-yl)acetic acid]: the pEC50 was above 7.00.

For `Cc1nc(CC2CCC(C)(C)CC2)c(-c2ccc(OCCc3ccc(F)cc3)cc2)c(N2CCC(C)(C)CC2)c1[C@H](OC(C)(C)C)C(=O)O` [Example 173, (S)-2-(tert-Butoxy)-2-(6-((4,4-dimethylcyclohexyl)methyl)-4-(4,4-dimethylpiperidin-1-yl)-5-(4-(4-fluorophenethoxy)phenyl)-2-methylpyridin-3-yl)acetic acid], the pEC50 is above 7.00.

With `Cc1nc(CNCC2CCCCC2)c(-c2ccc(OCCc3ccc(F)cc3)cc2)c(N2CCC(C)(C)CC2)c1[C@H](OC(C)(C)C)C(=O)O` [Example 99, (S)-2-(tert-Butoxy)-2-(6-(((cyclohexylmethyl)amino)methyl)-4-(4,4-dimethylpiperidin-1-yl)-5-(4-(4-fluorophenethoxy)phenyl)-2-methylpyridin-3-yl)acetic acid], the pEC50 is above 7.00.

For `Cc1nc(N)c(-c2ccc3c(c2)CCN(c2ncnc4c2oc2ccccc24)C3)c(N2CCC(C)(C)CC2)c1[C@H](OC(C)(C)C)C(=O)O` [Example 167, (S)-2-(6-amino-5-(2-(benzofuro[3,2-d]pyrimidin-4-yl)-1,2,3,4-tetrahydroisoquinolin-6-yl)-4-(4,4-dimethylpiperidin-1-yl)-2-methylpyridin-3-yl)-2-(tert-butoxy)acetic acid], the pEC50 was above 7.00.

On to `Cc1nc(O)c(-c2ccc(OCCc3ccc(F)cc3)cc2)c(N2CCC(C)(C)CC2)c1[C@H](OC(C)(C)C)C(=O)O` (single isomer, unassigned) [Example 50], for which the pEC50 was above 7.00.

The same test, now with this note: Human immunodeficiency virus 1, MT2, 120 h, read-out: EC50 μM.
With `CCOCCOCc1cc(N2CCC(C)(C)CC2)c([C@H](OC(C)(C)C)C(=O)O)c(C)n1` [Example 35, (S)-2-(tert-butoxy)-2-(4-(4,4-dimethylpiperidin-1-yl)-6-((2-ethoxyethoxy)methyl)-2-methylpyridin-3-yl)acetic acid], the concentration giving a half-maximal response (EC50) is 0.316 µM.

Turning to `Cc1cc(F)ccc1CN1CCc2cc(-c3c(CN4CCCC4)nc(C)c([C@H](OC(C)(C)C)C(=O)O)c3N3CCC(C)(C)CC3)ccc2C1` [Example 118, (S)-2-(tert-Butoxy)-2-(4-(4,4-dimethylpiperidin-1-yl)-5-(2-(4-fluoro-2-methylbenzyl)-1,2,3,4-tetrahydroisoquinolin-6-yl)-2-methyl-6-(pyrrolidin-1-ylmethyl)pyridin-3-yl)acetic acid], the EC50 was determined as 0.002 µM.

Take `Cc1nc(CC2CCC(C)(C)CC2)c(-c2ccc(OCCc3ccc(F)cc3)cc2)c(N2CCC(C)(C)CC2)c1[C@H](OC(C)(C)C)C(=O)O` [Example 173, (S)-2-(tert-Butoxy)-2-(6-((4,4-dimethylcyclohexyl)methyl)-4-(4,4-dimethylpiperidin-1-yl)-5-(4-(4-fluorophenethoxy)phenyl)-2-methylpyridin-3-yl)acetic acid]: the EC50 is 0.035 µM.

What is called EC50 is the concentration that produces a half-maximal response.
